Source: patent publication US9408393B2, “Bismuth-thiols as antiseptics for agricultural, industrial and other uses” (Microbion Corporation, priority 2010, dated 2016)
Like-named read-outs stand apart in the source and are kept apart here.

Tests used:
[1] = tested on: Staphylococcus aureus (SA, MRSA); test: Single-point BisEDT-antibiotic combination FICI; format: cell-based
[2] = tested on: Enterococcus faecalis; test: Single-point BisEDT-antibiotic combination FICI; format: cell-based; details: E Fc 3121
[3] = tested on: Streptococcus pneumoniae (SP, PRSP); test: Single-point BisEDT-antibiotic combination FICI; details: PRSP 5348
[4] = tested on: S. aureus; test: Broth dilution MIC/MBC, BT-antibiotic combinations; format: cell-based, Staphylococcus aureus
Experimental: Materials & Methods. Susceptibility studies were performed by broth dilution in 96-well tissue culture plates (Nalge Nunc International, Denmark) in accordance with NCCLS protocols (National Committee for Clinical Laboratory Standards. (1997). Methods for Dilution Antimicrobial Susceptibility Tests for Bacteria that Grow Aerobically: Approved Standard M7-A2 and Informational Supplement M100-S10. NCCLS, Wayne, Pa., USA).
Briefly, overnight bacterial cultures were used to prepare 0.5 McFarland standard suspensions, which were further diluted 1:50 (˜2×10^6 cfu/mL) in cation-adjusted Mueller-Hinton broth medium (BBL, Cockeysville, Md., USA). BTs (prepared as described above) and antibiotics were added at incremental concentrations, keeping the final volume constant at 0.2 mL. Cultures were incubated for 24 h at 37° C. and turbidity was assessed by absorption at 630 nm using an ELISA plate reader (Biotek Instruments, Winooski, Vt., USA) according to the manufacturer's recommendations. […] Viable bacterial counts (cfu/mL) were determined by standard plating on nutrient agar.
The checkerboard method was used to assess the activity of antimicrobial combinations. The fractional inhibitory concentration index (FICI) and the fractional bactericidal concentration index (FBCI) were calculated, according to Eliopoulos et al. (Eliopoulos and Moellering, (1996) Antimicrobial combinations. In Antibiotics in Laboratory Medicine (Lorian, V., Ed.), pp. 330-96, Williams and Wilkins, Baltimore, Md., USA). Synergy was defined as an FICI or FBCI index of […], no interaction at >0.5-4 and antagonism at >4 (Odds, F C (2003) Synergy, antagonism, and what the chequerboard puts between them. Journal of Antimicrobial Chemotherapy 52:1). Synergy was also defined conventionally as ≧4-fold decrease in antibiotic concentration.

[5] = tested on: P. aeruginosa; test: Checkerboard broth microdilution MIC and FICI; format: cell-based, Pseudomonas aeruginosa; details: for MIC (μg/mL) Alone / MIC: compound alone; for MIC: Pseudomonas aeruginosa
Experimental: (§1) The effects of combinations of microparticulate Bis-EDT and four Bis-EDT analogs prepared as described above, and other agents against representative strains of several Gram-negative pathogenic bacteria were tested. A modification of a common laboratory method was used to determine synergism (FICI≦0.5), enhancement (0.5<FICI≦1.0), antagonism (FICI>4.0) and indifference (1.0<FICI≦4.0) used fractional inhibitory concentrations (FICs) and FIC indices (FICI) (Eliopoulos G and R Moellering. 1991. Antimicrobial combinations. In Antibiotics in Laboratory Medicine, Third Edition, edited by V Lorian. Williams and Wilkins, Baltimore, Md., pp. 432-492; Odds, 2003 J. Antimicrob. Chemother. 52(1):1). The checkerboard technique was used to determine FIC indices and was employed in this study.
(§2) Stock solutions of all test articles were prepared at 40× the final target concentration in the appropriate solvent. […] The final drug concentrations in the FIC assay plates were set to bracket the MIC value of each agent for each test organism, unless the strain was totally resistant to the test agent. […] The test organisms were originally received from clinical sources, or from the American Type Culture Collection. Upon receipt, the isolates were streaked onto Tryptic Soy Agar II (TSA). Colonies were harvested from these plates and a cell suspension was prepared in an appropriate broth growth medium containing cryoprotectant. Aliquots were then frozen at −80° C. The frozen seeds of the organisms to be tested in a given assay were thawed, streaked for isolation onto TSA plates, and incubated at 35° C. All organisms were tested in Mueller Hinton II Broth (Becton Dickinson, Lot No. 9044411). The broth was prepared at 1.05× normal weight/volume to offset the 5% volume of the drugs in the final test plates.
(§3) Minimal Inhibitory Concentration (MIC) values were previously determined using the broth microdilution method for aerobic bacteria (Clinical and Laboratory Standards Institute (CLSI). Methods for Dilution Antimicrobial Susceptibility Tests for Bacteria That Grow Aerobically; Approved Standard—Eighth Edition. CLSI document M07-A8 [ISBN 1-56238-689-1]. Clinical and Laboratory Standards Institute, 940 West Valley Road, Suite 1400, Wayne, Pa. 19087-1898 USA, 2009.).
(§4) FIC values were determined using a broth microdilution method previously described (Sweeney et al., 2003 Antimicrob. Agents Chemother. 47(6):1902-1906). To prepare the test plates, automated liquid handlers (Multidrop 384, Labsystems, Helsinki, Finland; Biomek 2000 and Multimek 96, Beckman Coulter, Fullerton Calif.) were used to conduct serial dilutions and liquid transfers.
(§5) The appropriate wells of standard 96-well microdilution plates (Falcon 3918) were filled with 150 μL of the appropriate solvent in columns 2-12 using the Multidrop 384. Three hundred microliters of each secondary test drug was added to each well in Column 1 of the plates. These plates were used to prepare the drug “mother plates” which provided the serial drug dilutions for the drug combination plates. The Biomek 2000 was used to transfer 150 μL of each secondary drug solution (40×) from the wells in Column 1 of the mother plate and to make eleven 2-fold serial dilutions. Mother plates of Bis-EDT (and analogs) were serial diluted top to bottom by hand, using a multichannel pipette. Two mother plates, one for each secondary drug and one for Bis-EDT (or analogs), were combined to form a “checkerboard” pattern by transfer of equal volumes (using a multi-channel pipette) to the drug combination plate. Row H and Column 12 each contained serial dilutions of one of the agents alone for determination of the MIC.
(§6) The “daughter plates” were loaded with 180 μL of test medium using the Multidrop 384. Then, the Multimek 96 was used to transfer 10 μL of drug solution from each well of the drug combination mother plate to each corresponding well of the daughter plate in a single step.

[6] = tested on: Gram-negative pathogenic bacteria; test: Checkerboard broth microdilution MIC and FICI; format: cell-based; details: for FICI, Fractional Inhibitory Concentration Index: in combination with Cefotaxime; for MIC: Klebsiella pneumoniae; for MIC / MIC (μg/mL) Alone: compound alone
Experimental: as §1, §2, §3, §4, §5, §6

[7] = MRSA S2446-3, BE = 0.2 μg/ml BisEDT
[8] = S. aureus ATCC 25923, BE = 0.2 μg/ml BisEDT
[9] = P. aeruginosa 103, in combination with Cefepime
[10] = P. aeruginosa 103, in combination with Cefotaxime
[11] = P. aeruginosa 1381, in combination with Cefepime
[12] = P. aeruginosa 1384, in combination with Cefepime
[13] = P. aeruginosa 1474, in combination with Cefepime
[14] = P. aeruginosa 1479, in combination with Cefepime
[15] = P. aeruginosa 2566, in combination with Cefepime
[16] = P. aeruginosa 2568, in combination with Cefepime

Structure (SMILES)	FICI, single-point BisEDT-antibiotic combination ([1]; MRSA 773)	FICI, single-point BisEDT-antibiotic combination [2]	FICI, single-point BisEDT-antibiotic combination [3]	Δ [4, 7]	Δ [4, 8]	FICI, Fractional Inhibitory Concentration Index [5, 9]	FICI, Fractional Inhibitory Concentration Index [5, 10]	MIC (μg/mL) Alone ([5]; P. aeruginosa 1381)	FICI, Fractional Inhibitory Concentration Index [5, 11]	MIC (μg/mL) Alone ([5]; P. aeruginosa 1384)	FICI, Fractional Inhibitory Concentration Index [5, 12]	FICI, Fractional Inhibitory Concentration Index [5, 13]	FICI, Fractional Inhibitory Concentration Index [5, 14]	FICI, Fractional Inhibitory Concentration Index [5, 15]	FICI, Fractional Inhibitory Concentration Index [5, 16]	FICI, Fractional Inhibitory Concentration Index ([6]; K. pneumoniae 1346)	FICI, Fractional Inhibitory Concentration Index ([6]; K. pneumoniae 1355)	FICI, Fractional Inhibitory Concentration Index ([6]; K. pneumoniae 2238)	FICI, Fractional Inhibitory Concentration Index ([6]; K. pneumoniae 2541)	FICI, Fractional Inhibitory Concentration Index ([6]; K. pneumoniae 2546)	further results
Cc1onc(-c2ccccc2)c1C(=O)N[C@@H]1C(=O)N2[C@@H]1SC(C)(C)[C@@H]2C(=O)O [Oxacillin]	2.28	0.92	1.03	–	–	–	–	–	–	–	–	–	–	–	–	–	–	–	–	–	–
NC[C@@H]1O[C@H](O[C@H]2[C@@H](O)[C@H](O[C@@H]3[C@@H](O)[C@H](N)C[C@H](N)[C@H]3O[C@H]3O[C@H](CN)[C@@H](O)[C@H](O)[C@H]3N)O[C@@H]2CO)[C@H](N)[C@@H](O)[C@@H]1O [NEO, Neomycin]	–	–	–	1.6	2.5	–	–	–	–	–	–	–	–	–	–	–	–	–	–	–	MIC ([4]; MRSA S2446-3, antibiotic alone): 13.400 mg/L; MIC + BE ([4]; MRSA S2446-3, with 0.2 μg/ml BisEDT): 8.500 mg/L; MIC ([4]; S. aureus ATCC 25923, antibiotic alone): 0.500 mg/L; MIC + BE ([4]; S. aureus ATCC 25923, with 0.2 μg/ml BisEDT): 0.200 mg/L
OCC(S)CS.[Bi] (stereo not drawn) [MB-2B, bismuth-2,3-dimercaptopropanol]	–	–	–	–	–	0.61	1.11	4 µg/mL	1.09	4 µg/mL	0.94	0.98	1.11	1.23	1.11	1.19	1.19	1.64	0.64	1.16	FICI, Fractional Inhibitory Concentration Index ([5]; P. aeruginosa 103, in combination with Aztreonam): 1.08; FICI, Fractional Inhibitory Concentration Index ([5]; P. aeruginosa 1381, in combination with Aztreonam): 0.89; FICI, Fractional Inhibitory Concentration Index ([5]; P. aeruginosa 1384, in combination with Aztreonam): 0.91; FICI, Fractional Inhibitory Concentration Index ([5]; P. aeruginosa 1474, in combination with Aztreonam): 0.54; FICI, Fractional Inhibitory Concentration Index ([5]; P. aeruginosa 1479, in combination with Aztreonam): 0.87; FICI, Fractional Inhibitory Concentration Index ([5]; P. aeruginosa 2566, in combination with Aztreonam): 0.91; FICI, Fractional Inhibitory Concentration Index ([5]; P. aeruginosa 2568, in combination with Aztreonam): 0.87; MIC ([5]; read-out: MIC (μg/mL) Alone, P. aeruginosa 1381): 8 µg/mL; MIC ([5]; read-out: MIC (μg/mL) Alone, P. aeruginosa 1384): 8 µg/mL; FICI, Fractional Inhibitory Concentration Index ([6]; K. pneumoniae 2549): 0.83; MIC ([6]; read-out: MIC (μg/mL) Alone, K. pneumoniae 1346): 4 µg/mL; MIC ([6]; read-out: MIC (μg/mL) Alone, K. pneumoniae 1355): 4 µg/mL; MIC ([6]; read-out: MIC (μg/mL) Alone, K. pneumoniae 2238): 4 µg/mL; MIC ([6]; read-out: MIC (μg/mL) Alone, K. pneumoniae 2541): 8 µg/mL; MIC ([6]; read-out: MIC (μg/mL) Alone, K. pneumoniae 2546): 8 µg/mL; MIC ([6]; read-out: MIC (μg/mL) Alone, K. pneumoniae 2549): 8 µg/mL
CO/N=C(\C(=O)N[C@@H]1C(=O)N2C(C(=O)O)=C(COC(N)=O)CS[C@H]12)c1ccco1 [Cefuroxime]	4.23	1.11	1.03	–	–	–	–	–	–	–	–	–	–	–	–	–	–	–	–	–	FICI, single-point BisEDT-antibiotic combination ([1]; SA 100): 1.11
C1C[S][Bi]([S]CC[S][Bi]2[S]CC[S]2)[S]1 [MB-1B-3, bismuth-1,2-ethane dithiol]	–	–	–	–	–	0.71	0.96	1 µg/mL	1.29	1 µg/mL	0.79	0.79	1.12	1.37	0.79	1.23	2.29	1.29	1.23	1.12	MIC (μg/mL) Alone ([5]; P. aeruginosa 103): 1 µg/mL; MIC (μg/mL) Alone ([5]; P. aeruginosa 1474): 1 µg/mL; MIC (μg/mL) Alone ([5]; P. aeruginosa 1479): 1 µg/mL; MIC (μg/mL) Alone ([5]; P. aeruginosa 2566): 0.5 µg/mL; MIC (μg/mL) Alone ([5]; P. aeruginosa 2568): 1 µg/mL; MIC (μg/mL) Alone ([6]; K. pneumoniae 1346): 2 µg/mL; MIC (μg/mL) Alone ([6]; K. pneumoniae 1355): 1 µg/mL; MIC (μg/mL) Alone ([6]; K. pneumoniae 2238): 1 µg/mL; MIC (μg/mL) Alone ([6]; K. pneumoniae 2541): 2 µg/mL; MIC (μg/mL) Alone ([6]; K. pneumoniae 2546): 1 µg/mL; MIC (μg/mL) Alone ([6]; K. pneumoniae 2549): 1 µg/mL; FICI, Fractional Inhibitory Concentration Index ([6]; K. pneumoniae 2549): 0.79
NC[C@@H]1O[C@H](O[C@H]2[C@@H](O)[C@H](O[C@@H]3[C@@H](O)[C@H](N)C[C@H](N)[C@H]3O[C@H]3O[C@H](CO)[C@@H](O)[C@H](O)[C@H]3N)O[C@@H]2CO)[C@H](N)[C@@H](O)[C@@H]1O [PARO, Paromomycin]	–	–	–	1.8	5.7	–	–	–	–	–	–	–	–	–	–	–	–	–	–	–	Synergy [4, 8]: + (Synergy was also defined conventionally as ≧4-fold decrease in antibiotic concentration); MIC ([4]; Staphylococcus aureus, ATCC25923, S. aureus ATCC 25923, antibiotic alone, read-out: MIC): 1.08 mg/L; MIC ([4]; Staphylococcus aureus, ATCC25923, S. aureus ATCC 25923, with 0.2 μg/ml BisEDT, read-out: MIC + BE): 0.188 mg/L; MIC ([4]; Staphylococcus aureus, MRSA, MRSA S2446-3, antibiotic alone, read-out: MIC): 335 mg/L; MIC ([4]; Staphylococcus aureus, MRSA, MRSA S2446-3, with 0.2 μg/ml BisEDT, read-out: MIC + BE): 183 mg/L
